Target: T1, SIRT1 (Homo sapiens, UniProt Q96EB6)
T1 sequence (Q96EB6 2-747): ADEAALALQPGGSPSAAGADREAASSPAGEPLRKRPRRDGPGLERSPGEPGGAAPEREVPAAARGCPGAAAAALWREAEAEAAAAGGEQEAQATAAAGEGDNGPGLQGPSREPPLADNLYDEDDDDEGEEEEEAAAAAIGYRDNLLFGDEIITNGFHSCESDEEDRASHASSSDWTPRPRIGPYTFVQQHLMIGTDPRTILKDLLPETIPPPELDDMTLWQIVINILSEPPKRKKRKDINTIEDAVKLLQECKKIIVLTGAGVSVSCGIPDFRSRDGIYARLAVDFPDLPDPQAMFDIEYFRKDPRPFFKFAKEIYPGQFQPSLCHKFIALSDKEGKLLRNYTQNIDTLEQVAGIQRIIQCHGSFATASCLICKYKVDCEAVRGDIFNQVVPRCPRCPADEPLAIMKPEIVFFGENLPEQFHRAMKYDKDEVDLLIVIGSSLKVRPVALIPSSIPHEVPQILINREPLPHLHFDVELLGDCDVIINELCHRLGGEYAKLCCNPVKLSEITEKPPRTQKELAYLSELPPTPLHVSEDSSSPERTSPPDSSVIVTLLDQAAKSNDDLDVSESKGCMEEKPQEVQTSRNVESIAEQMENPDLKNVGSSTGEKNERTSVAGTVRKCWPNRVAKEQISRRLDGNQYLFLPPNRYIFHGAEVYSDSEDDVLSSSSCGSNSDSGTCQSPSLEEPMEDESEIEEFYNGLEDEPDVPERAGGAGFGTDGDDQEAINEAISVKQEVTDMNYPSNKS
Experiment: SensoLyte […] fluorimetric SIRT1 deacetylase activity assay kit
Assay type: biochemical

CC(C)(C)c1cc(C=C2C(=O)NC(=S)NC2=O)cc(C(C)(C)C)c1O [MHY2256, 5-(3,5-Di-tert-butyl-4-hydroxybenzylidene)-2-thioxodihydropyrimidine-4,6(1H,5H)-dione]
IC50: 270 µM

Source: PMC5166496 (International Journal of Biological Sciences, 2016)
